Patent US5223169A, “Hydrolase surfactant systems and their use in laundering” (priority 1991, dated 1993)

Experiments:
Test in all cases: pH-stat assay of triglyceride emulsion hydrolysis; critical oil-to-surfactant ratio
[1] = tested on: enzyme from P. putida ATCC 53552 (lipase GC-1065); format: biochemical, Pseudomonas putida
Description: (§1) To determine the critical ratio for any specific enzyme-surfactant combination, aliquots of an aqueous solution, each containing a determined (constant) amount of the enzyme which is effective in the absence of any surfactant to hydrolyze the triglycerides in an oily stain on a determined (constant) amount of a fabric soiled by a determined (constant) amount of a triglyceride oil, are mixed with a determined (constant) amount of a surfactant which is within the range of the amounts conventionally present in home laundry solutions, e.g., from about 0.2 to 1.5. mM, and which is effective to inhibit the hydrolyzing activity of the enzyme. To the aliquots are added a hydrolysis activator, e.g., trioctanoin, in increasing amounts and the hydrolyzing activity of the enzyme in the various solutions is determined.
(§2) The experiments determining enzyme activity, such as those set out in Tables IA and IB, were carried out as follows:
(§3) The desired amount of triglyceride was weighed into an appropriate size beaker, on a Mettler balance (model number AE163). The corresponding amount of surfactant was added to the triglyceride, from a previously prepared aqueous surfactant stock solution, and the triglyceride and surfactant mixed manually. The sample was then adjusted to the desired weight using doubly distilled H2 O. Emulsification of the sample was carried out, prior to assaying enzyme activity, with a probe sonicator (Braun-Sonic model 2000), on ice, for approx. 2 minutes.
(§4) (ii) Enzyme Activity Measurement:
(§5) This was achieved by monitoring the rate of acid liberation, from the enzymatic hydrolysis of the triglycerides in the emulsion. The assay was initiated by adding approx. 2 ppm lipase to 10 ml of the prepared emulsion. The acid liberated was monitored by autotitration, on a Radiometer pH-stat (model number ABU80) to an endpoint of a pH of 10. Initial rates were recorded for the first 5 minutes of the reaction, and the reaction rates reported as μmole H^+ titrated . min ^-1 mgE^-1. Occasionally enzyme activity is reported as % total oil hydrolyzed in 14 min. In these examples, the reaction was allowed to run for 14 min. and the amount of acid titrated recorded. The % total oil (triglyceride) hydrolyzed was then calculated by dividing the recorded value with the theoretically calculated value assuming three equivalents of oleic acid was produced for each triglyceride equivalent. All assays were run at ambient temperatures.

Enzyme Lipolase = biological target: T1, Enzyme Lipolase (Thermomyces lanuginosus, UniProt O59952); format: biochemical, A. oryzae; details: for Critical Ratio, LIPOLASE: trioctanoin emulsions, lipase ~2 ppm; for R, critical (minimum activating molar) ratio, LIPOLASE: triolein emulsions
T1 construct: purchased Novo Industri; host or cells: Aspergillus oryzae
T1 sequence (O59952 23-291): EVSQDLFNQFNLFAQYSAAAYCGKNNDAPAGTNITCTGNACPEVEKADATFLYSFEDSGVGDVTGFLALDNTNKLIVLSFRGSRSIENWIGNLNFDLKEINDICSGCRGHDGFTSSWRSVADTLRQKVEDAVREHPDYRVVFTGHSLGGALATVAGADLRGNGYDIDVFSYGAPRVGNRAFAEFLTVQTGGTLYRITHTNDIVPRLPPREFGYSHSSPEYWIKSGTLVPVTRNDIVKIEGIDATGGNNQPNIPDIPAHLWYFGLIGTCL
Description: as §1, §2, §3, §4, §5

Enzyme Amano P = biological target: T2, Enzyme Amano P (Burkholderia cepacia, UniProt P22088); format: biochemical, P. fluorescens
T2 construct: purchased Amano Co
T2 sequence (P22088 45-364): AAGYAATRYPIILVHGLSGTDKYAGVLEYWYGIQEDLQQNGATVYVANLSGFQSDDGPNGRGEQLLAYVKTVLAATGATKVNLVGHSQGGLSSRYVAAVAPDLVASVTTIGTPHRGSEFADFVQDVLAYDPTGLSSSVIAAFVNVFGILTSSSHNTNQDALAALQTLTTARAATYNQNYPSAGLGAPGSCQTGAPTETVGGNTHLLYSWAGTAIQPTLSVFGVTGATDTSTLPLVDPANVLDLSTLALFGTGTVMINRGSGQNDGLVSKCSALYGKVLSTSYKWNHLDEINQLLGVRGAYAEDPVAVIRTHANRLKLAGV
Description: as §1, §2, §3, §4, §5

Enzyme Amano 68S = format: biochemical, P. sp.; details: for Critical Ratio / Enzyme Activity: surfactant conc.: SDS 1 mM
Description: as §1, §2, §3, §4, §5

[2] = Table II, trioctanoin, surfactant conc.: SDS 2 mM, C12 LAS 1 mM, Neodol 25-3S 2 mM, Neodol 25-9 0.5 mM, Surfonic JL80X 0.5 mM, Triton X100 2 mM
[3] = Table Summary, second block of lines (corresponds to triolein Tables VI-IX)
[4] = Table VI, triolein, surfactant conc.: SDS 1 mM, C12 LAS 0.5 mM, Neodol 25-3S 1 mM, Neodol 25-9 0.5 mM, Surfonic JL80X 0.5 mM
[5] = triolein emulsions, high conc.: SDS 10 mM, C12 LAS 5 mM, Neodol 25-9 5 mM, Neodol 25-3S 5 mM, Surfonic JL-80X 2.5 mM
[6] = Table III, trioctanoin, surfactant conc.: SDS 2 mM, C12 LAS 1 mM, Neodol 25-3S 2 mM, Neodol 25-9 0.5 mM, Surfonic JL80X 0.5 mM
[7] = Table IV, trioctanoin, C12 LAS 0.2 mM, Neodol 25-3S 0.5 mM, Neodol 25-9 0.5 mM, Surfonic JL80X 0.5 mM
[8] = Table VIII, triolein, C12 LAS 0.5 mM, Neodol 25-3S 0.5 mM, Neodol 25-9 0.5 mM, Surfonic JL80X 2.5 mM

CCCCCCCCCCCCc1ccc(S(=O)(=O)O)cc1 [C12 LAS]
Critical Ratio [1, 2]: 5-10 | Enzyme Activity [1, 2]: 250 μmole H^+ released min^-1 mgE^ | critical ratio class, enzyme From ATCC 53552 [1, 3]: 0 (means a critical ratio of 1.0-10) | Critical Ratio [1, 4]: 5-10 | Enzyme Activity [1, 4]: 50 μmole H^+ released min^-1 mgE^ | Critical Ratio ([1]; Table XVIII, triolein, Pseudomonas putida enzyme, surfactant 0.5 mM): 5-10 | Critical Ratio ([1]; Table XVIII, triolein, Pseudomonas putida enzyme, surfactant 5.0 mM): 1-5 | Specific Activity determined from initial rates, GC-1065, High ([1]; trioctanoin emulsions, high surfactant conc. as E41): 250 μeq acid/min.mg | Critical Ratio, GC-1065, High ([1]; trioctanoin emulsions, lipase ~2 ppm, high surfactant conc.: SDS 10 mM, C12 LAS 5 mM, Neodol 25-9 5 mM, Neodol 25-3S 10 mM, Surfonic JL-80X 5 mM, Triton X-100 10 mM, C16 DAPS 10 mM): 5-10 | Critical Ratio, GC-1065, Low ([1]; trioctanoin emulsions, lipase ~2 ppm, low surfactant conc.: SDS 2 mM, C12 LAS 1 mM, Neodol 25-9 0.5 mM, Neodol 25-3S 2 mM, Surfonic JL-80X 0.5 mM, Triton X-100 2 mM, C16 DAPS 0.5 mM): 2-10 | Specific Activity determined from initial rates, GC-1065, Low ([1]; trioctanoin emulsions, low surfactant conc. as E40): 250 μeq acid/min.mg | Activity (specific hydrolysis activity from initial rates), GC-1065, High ([1]; triolein emulsions, high conc. as E55): 60 μeq acid/min./mg | R, critical (minimum activating molar) ratio, GC-1065, High [1, 5]: 1-5 | Activity (specific hydrolysis activity from initial rates), GC-1065, Low ([1]; triolein emulsions, low conc. as E54): 50 μeq acid/min./mg | R, critical (minimum activating molar) ratio, GC-1065, Low ([1]; triolein emulsions, low conc.: SDS 1 mM, C12 LAS 0.5 mM, Neodol 25-9 0.5 mM, Neodol 25-3S 1 mM, Surfonic JL-80X 0.5 mM): 5-10 | Critical Ratio (Enzyme Lipolase; Table IX, triolein, C12 LAS 0.5 mM): 30-40 | critical ratio class, Lipolase (Enzyme Lipolase; [3]): - (means a critical ratio of 10-100) | Critical Ratio (Enzyme Lipolase; Table V, trioctanoin, each surfactant 0.5 mM): 0.5-1 | Critical Ratio, LIPOLASE (Enzyme Lipolase; surfactant 0.5 mM): 0.5-1 | Critical Ratio, LIPOLASE (Enzyme Lipolase; surfactant 5 mM): 0.5-1 | R, critical (minimum activating molar) ratio, LIPOLASE (Enzyme Lipolase; surfactant 0.5 mM): 30-40 | R, critical (minimum activating molar) ratio, LIPOLASE (Enzyme Lipolase; surfactant 5.0): 40-50 | Critical Ratio (Enzyme Amano P; [6]): 5-20 | Enzyme Activity (Enzyme Amano P; [6]): 70 μmole H^+ released min^-1 mgE^ | critical ratio class, Amano P (Enzyme Amano P; [3]): - (means a critical ratio of 10-100) | Enzyme Activity (Enzyme Amano P; Table VII, triolein, surfactant conc.: SDS 1 mM, others 0.5 mM): 13 μmole H^+ released min^-1 mgE^ | Specific Activity determined from initial rates, AMANO P, High (Enzyme Amano P; trioctanoin emulsions, high surfactant conc. as E43): 70 μeq acid/min.mg | Critical Ratio, AMANO P, High (Enzyme Amano P; trioctanoin emulsions, lipase ~2 ppm, high conc.: SDS 10 mM, C12 LAS 5 mM, Neodol 25-9 5 mM, Neodol 25-3S 20 mM, Surfonic JL-80X 5 mM): 5-10 | Critical Ratio, AMANO P, Low (Enzyme Amano P; trioctanoin emulsions, lipase ~2 ppm, low conc.: SDS 2 mM, C12 LAS 1 mM, Neodol 25-9 0.5 mM, Neodol 25-3S 2.0 mM, Surfonic JL-80X 0.5 mM): 5-10 | Specific Activity determined from initial rates, AMANO P, Low (Enzyme Amano P; trioctanoin emulsions, low surfactant conc. as E42): 70 μeq acid/min.mg | Activity (specific hydrolysis activity from initial rates), AMANO P, High (Enzyme Amano P; triolein emulsions, high conc. as E57): 26 μeq acid/min./mg | R, critical (minimum activating molar) ratio, AMANO P, High (Enzyme Amano P; [5]): 10-20 | Activity (specific hydrolysis activity from initial rates), AMANO P, Low (Enzyme Amano P; triolein emulsions, low conc. as E56): 13 μeq acid/min./mg | R, critical (minimum activating molar) ratio, AMANO P, Low (Enzyme Amano P; triolein emulsions, low conc.: SDS 1 mM, others 0.5 mM): 10-20 | Critical Ratio (Enzyme Amano 68S; [7]): 5-10 | Enzyme Activity (Enzyme Amano 68S; [7]): 175 μmole H^+ released min^-1 mgE^ | critical ratio class, Amano 68S (Enzyme Amano 68S; [3]): - (means a critical ratio of 10-100) | Critical Ratio (Enzyme Amano 68S; [8]): 10-20 | Enzyme Activity (Enzyme Amano 68S; [8]): 30 μmole H^+ released min^-1 mgE^ | Specific Activity determined from initial rates, AMANO 68S, High (Enzyme Amano 68S; trioctanoin emulsions, high surfactant conc. as E45): 200 μeq acid/min.mg | Critical Ratio, AMANO 68S, High (Enzyme Amano 68S; trioctanoin emulsions, lipase ~2 ppm, high conc.: SDS 10 mM, C12 LAS 2 mM, Neodol 25-9 5 mM, Neodol 25-3S 10 mM, Surfonic JL-80X 5 mM): 1-5 | Critical Ratio, AMANO 68S, Low (Enzyme Amano 68S; trioctanoin emulsions, lipase ~2 ppm, low conc.: SDS 1 mM, C12 LAS 0.2 mM, Neodol 25-9 0.5 mM, Neodol 25-3S 0.5 mM, Surfonic JL-80X 0.5 mM): 5-10 | Specific Activity determined from initial rates, AMANO 68S, Low (Enzyme Amano 68S; trioctanoin emulsions, low surfactant conc. as E44): 175 μeq acid/min.mg | Activity (specific hydrolysis activity from initial rates), AMANO 68S, High (Enzyme Amano 68S; triolein emulsions, high conc. as E59): 55 μeq acid/min./mg | R, critical (minimum activating molar) ratio, AMANO 68S, High (Enzyme Amano 68S; triolein emulsions, high conc.: SDS 10 mM, C12 LAS 5 mM, Neodol 25-9 5 mM, Neodol 25-3S 5 mM, Surfonic JL-80X 2.5 mm): 10-20 | Activity (specific hydrolysis activity from initial rates), AMANO 68S, Low (Enzyme Amano 68S; triolein emulsions, low conc. as E58): 30 μeq acid/min./mg | R, critical (minimum activating molar) ratio, AMANO 68S, Low (Enzyme Amano 68S; triolein emulsions, low conc.: SDS 1 mM, C12 LAS 0.5 mM, Neodol 25-9 0.5 mM, Neodol 25-3S 0.5 mM, Surfonic JL-80X 2.5 mM): 10-20
